Test results: US20090149531A1, “CHEMICAL COMPOSITION DERIVED FROM P-HYDROXYPHENYL PROPIONIC ACID FOR THE TREATMENT OF PSORIASIS” (APOTEKNOS PARA LA PIEL, S.L., priority 2007, published 2009)
“And” between values parts separate entries of the source, which are not always exact repeats. Equal values may be shown once.

Columns and labels:
[1] = test system: Salmonella typhimurium TA1537; assay: Ames test without external metabolisation, TA1537; assay type: cell-based; settings: no metabolic activation; for Colonies per plate: individual plates 1-4; for Colonies per plate / Colonies per plate, Mean: 48 hours; for Mutagenic Ind,: relative to H+/B+
Experimental: (§1) The mutagenic activity of compound A was evaluated using the Ames test without external metabolisation. The Ames test is based on the use of bacterial strains to detect mutations in the DNA in vitro using bacterial strains that make it possible to detect types of damage to the genome.
(§2) Bacteria of 4 strains of Salmonella typhimurium that are internationally recommended for this test, TA1535, TA1537, TA98 and TA100, were used. The test was carried out according to highly standardised protocols. […] The test was carried out without external metabolic activation. The plates were incubated at 37° C. and the reverting colonies were counted after 48 hours.

[2] = test system: Salmonella typhimurium TA100; assay: Ames test without external metabolisation, TA100; assay type: cell-based; settings: no metabolic activation; for Colonies per plate: individual plates 1-4, A; for Colonies per plate / Colonies per plate, Mean: 48 hours; for Mutagenic Ind,: relative to H+/B+
Experimental: as §1, §2

[3] = test system: Salmonella typhimurium TA98; assay: Ames test without external metabolisation, TA98; assay type: cell-based; settings: no metabolic activation; for Colonies per plate: individual plates 1-4, A; for Colonies per plate / Colonies per plate, Mean: 48 hours; for Mutagenic Ind,: relative to H+/B+
Experimental: as §1, §2

[4] = test system: Salmonella typhimurium TA1535; assay: Ames test without external metabolisation, TA1535; assay type: cell-based; settings: no metabolic activation; for Colonies per plate: individual plates 1-4, A; for Colonies per plate / Colonies per plate, Mean: 48 hours; for Mutagenic Ind,: relative to H+/B+
Experimental: as §1, §2

[5] = Assessment of erythema in the hairless rat study; assay type: in vivo, hairless rats; settings: 0=absence, 1=low grade, 3=high grade
Experimental: (§3) To do this Calcitriol was used as the reference product at 0.01% and compound A was used as the test product at 1% and 0.1% (100 μg/cm^2 and 10 μg/cm^2, respectively). A Control Group was included, administered only with the vehicle (absolute ethanol).
(§4) The treatments were administered topically, once a day for 10 days (100 μg/side/animal). The animals were weighed on a daily basis throughout the study and the grade of erythema was evaluated (0=Absence of erythema, 1=Low grade erythema, 3=High grade erythema). On the last day of the study, day 11, the amount of corneous material extracted from the epidermis of the animals was evaluated.

[6] = Signs of toxicity and deaths in the hairless rat study; assay type: in vivo; settings: compound A at 1%, topical
Experimental: A Control Group was included, administered only with the vehicle (absolute ethanol).
as §4

[7] = Permeability study, pig ear skin in Franz cell; assay type: in vitro ADME; settings: hydroalcoholic solution 63.6 μg/ml or 6.36 μg/ml
Experimental: Skin from pig ears was used as the experimental system to which a hydroalcoholic solution of compound A 6.36×10^−2 mg/ml and 6.36×10^−3 mg/ml was applied, the reference product being a control hydroalcoholic solution (without compound A). For this study 4 different hydroalcoholic solutions were prepared. The first included 6.36 μg/ml of compound A, the second included 63.6 μg/ml, and the third and fourth were control solutions without compound A. All the preparations were tested on the pig ear skin experimental system. Samples were taken in the diffuser compartment at 6 different times (0, 1, 2, 6, 12 and 24 hours). All the samples (recipients) were quantified by HPLC. FIG. 1. Concentration of compound A in the recipient of the Franz cell for a sample with a concentration of 63.6 μg/ml of A. FIG. 2. Concentration of compound A in the recipient of the Franz cell for a sample with a concentration of 6.36 μg/ml of A.

[8] = test system: cell hyperproliferation in hairless rats; assay: Model of desquamation in hairless rats: corneous material extracted; assay type: in vivo; settings: for amount of corneous material extracted, total sum of the right and left flanks, Portal No, 1 / amount of corneous material extracted, total sum of the right and left flanks, Portal No, 2 / amount of corneous material extracted, total sum of the right and left flanks, Portal No, 3 / amount of corneous material extracted, total sum of the right and left flanks, Portal No, 4 / amount of corneous material extracted, total sum of the right and left flanks, Portal No, 5 / amount of corneous material extracted, total sum of the right and left flanks, Portal No, 6: day 11
Experimental: The activity of compound A on cell hyperproliferation in hairless rats was evaluated using the model of desquamation in hairless rats described in the publication: Bräutigam, M., Hübner, H., Rach, P., Thieroff-Ekerdi, R. “Effects of Calcipotriol (MC 903) and Calcitriol after Topical Application on the Skin of Hairless Rats”, Skin Pharmacol 1992; 5:87-92.
as §3
The animals were randomly distributed into the following experimental groups:
as §4

[9] = Compound A 0.1% (10 μg/cm^2) topical once a day for 10 days
[10] = Compound A 1% (100 μg/cm^2) topical once a day for 10 days

Compound: C=C1C(=O)O[C@H](CCc2ccc(OC)cc2)[C@@H]1C [Compound A]
- Colonies per plate ([1]; Comp. A 10 μg/ml, A): 0 (3×) and 1
- Colonies per plate, Mean ([1]; Comp. A 10 μg/ml): 0.25
- Mutagenic Ind, ([1]; Comp. A 10 μg/ml): 0.5
- Colonies per plate ([1]; Comp. A 100 μg/ml, A): 0 (2×) and 1 and 2
- Colonies per plate, Mean ([1]; Comp. A 100 μg/ml): 0.75
- Mutagenic Ind, ([1]; Comp. A 100 μg/ml): 1.5
- Colonies per plate ([1]; Comp. A 1 mg/ml): 0
- Colonies per plate, Mean ([1]; Comp. A 1 mg/ml): 0
- Mutagenic Ind, ([1]; Comp. A 1 mg/ml): 0
- Ames test result (mutagenic effects) ([1]; TA1537, concentrations evaluated 10 μg/ml to 1 mg/ml): negative
- Colonies per plate ([2]; Comp. A 10 μg/ml): 38 and 41 and 44 and 54
- Colonies per plate, Mean ([2]; Comp. A 10 μg/ml): 44.25
- Mutagenic Ind, ([2]; Comp. A 10 μg/ml): 0.9124
- Colonies per plate ([2]; Comp. A 100 μg/ml): 45 and 35 and 31 and 51
- Colonies per plate, Mean ([2]; Comp. A 100 μg/ml): 40.5
- Mutagenic Ind, ([2]; Comp. A 100 μg/ml): 0.8351
- Colonies per plate ([2]; Comp. A 1 mg/ml): 52 and 37 and 38 and 40
- Colonies per plate, Mean ([2]; Comp. A 1 mg/ml): 44
- Mutagenic Ind, ([2]; Comp. A 1 mg/ml): 0.9072
- Ames test result (mutagenic effects) ([2]; TA100, concentrations evaluated 10 μg/ml to 1 mg/ml): negative
- Colonies per plate ([3]; Comp. A 10 μg/ml): 9 and 6 and 12 and 14
- Colonies per plate, Mean ([3]; Comp. A 10 μg/ml): 10.25
- Mutagenic Ind, ([3]; Comp. A 10 μg/ml): 1.079
- Colonies per plate ([3]; Comp. A 100 μg/ml): 15 and 12 (2×) and 8
- Colonies per plate, Mean ([3]; Comp. A 100 μg/ml): 11.75
- Mutagenic Ind, ([3]; Comp. A 100 μg/ml): 1.237
- Colonies per plate ([3]; Comp. A 1 mg/ml): 8 and 4 and 6 and 17
- Colonies per plate, Mean ([3]; Comp. A 1 mg/ml): 8.75
- Mutagenic Ind, ([3]; Comp. A 1 mg/ml): 0.9211
- Ames test result (mutagenic effects) ([3]; TA98, concentrations evaluated 10 μg/ml to 1 mg/ml): negative
- Colonies per plate ([4]; Comp. A 10 μg/ml): 1 (2×) and 2 and 0
- Colonies per plate, Mean ([4]; Comp. A 10 μg/ml): 1
- Mutagenic Ind, ([4]; Comp. A 10 μg/ml): 0.5
- Colonies per plate ([4]; Comp. A 100 μg/ml): 1 (2×) and 2 and 0
- Colonies per plate, Mean ([4]; Comp. A 100 μg/ml): 1
- Mutagenic Ind, ([4]; Comp. A 100 μg/ml): 0.5
- Colonies per plate ([4]; Comp. A 1 mg/ml): 1 (2×) and 0 and 2
- Colonies per plate, Mean ([4]; Comp. A 1 mg/ml): 1
- Mutagenic Ind, ([4]; Comp. A 1 mg/ml): 0.5
- Ames test result (mutagenic effects) ([4]; TA1535, concentrations evaluated 10 μg/ml to 1 mg/ml): negative
- Assessment of erythema (mean grade) ([5]; Compound A 0.1% topical once a day, Baseline): 0.0 ± 0.00
- Assessment of erythema (mean grade) ([5]; Compound A 0.1% topical once a day, Day 2): 0.0 ± 0.00
- Assessment of erythema (mean grade) ([5]; Compound A 0.1% topical once a day, Day 3): 0.0 ± 0.00
- Assessment of erythema (mean grade) ([5]; Compound A 0.1% topical once a day, Day 4): 0.0 ± 0.00
- Assessment of erythema (mean grade) ([5]; Compound A 0.1% topical once a day, Day 5): 0.0 ± 0.00
- Assessment of erythema (mean grade) ([5]; Compound A 0.1% topical once a day, Day 6): 0.0 ± 0.00
- Assessment of erythema (mean grade) ([5]; Compound A 0.1% topical once a day, Day 7): 0.0 ± 0.00
- Assessment of erythema (mean grade) ([5]; Compound A 0.1% topical once a day, Day 8): 0.0 ± 0.00
- Assessment of erythema (mean grade) ([5]; Compound A 0.1% topical once a day, Day 9): 0.0 ± 0.00
- Assessment of erythema (mean grade) ([5]; Compound A 0.1% topical once a day, Day 10): 0.0 ± 0.00
- Assessment of erythema (mean grade) ([5]; Compound A 0.1% topical once a day, Day 11): 0.0 ± 0.00
- Assessment of erythema (mean grade) ([5]; Compound A 1% topical once a day, Baseline): 0.0 ± 0.00
- Assessment of erythema (mean grade) ([5]; Compound A 1% topical once a day, Day 2): 1.0 ± 0.00
- Assessment of erythema (mean grade) ([5]; Compound A 1% topical once a day, Day 3): 1.0 ± 0.00
- Assessment of erythema (mean grade) ([5]; Compound A 1% topical once a day, Day 4): 1.2 ± 0.11
- Assessment of erythema (mean grade) ([5]; Compound A 1% topical once a day, Day 5): 1.3 ± 0.17
- Assessment of erythema (mean grade) ([5]; Compound A 1% topical once a day, Day 6): 1.5 ± 0.22
- Assessment of erythema (mean grade) ([5]; Compound A 1% topical once a day, Day 7): 1.5 ± 0.22
- Assessment of erythema (mean grade) ([5]; Compound A 1% topical once a day, Day 8): 1.2 ± 0.40
- Assessment of erythema (mean grade) ([5]; Compound A 1% topical once a day, Day 9): 0.9 ± 0.15
- Assessment of erythema (mean grade) ([5]; Compound A 1% topical once a day, Day 10): 0.9 ± 0.15
- Assessment of erythema (mean grade) ([5]; Compound A 1% topical once a day, Day 11): 1.2 ± 0.17
- signs of toxicity [6]: none of the animals presented signs of toxicity
- amount of compound A dissolved in the recipient ([7]; samples at 0-24 hours, HPLC quantification limit): < 0.01 mg/mL
- transdermal flow through the skin of the pig ear ([7]; up to 24 hours): no transdermal flow
- amount of corneous material extracted, total sum of the right and left flanks, Portal No, 1 [8, 9]: 3.1 ± 0.17 mg
- amount of corneous material extracted, total sum of the right and left flanks, Portal No, 2 [8, 9]: 1.7 ± 0.08 mg
- amount of corneous material extracted, total sum of the right and left flanks, Portal No, 3 [8, 9]: 1.1 ± 0.14 mg
- amount of corneous material extracted, total sum of the right and left flanks, Portal No, 4 [8, 9]: 1.1 ± 0.22 mg
- amount of corneous material extracted, total sum of the right and left flanks, Portal No, 5 [8, 9]: 1.1 ± 0.28 mg
- amount of corneous material extracted, total sum of the right and left flanks, Portal No, 6 [8, 9]: 8.1 ± 0.47 mg
- amount of corneous material extracted, total sum of the right and left flanks, Portal No, 1 [8, 10]: 3.1 ± 0.75 mg
- amount of corneous material extracted, total sum of the right and left flanks, Portal No, 2 [8, 10]: 2.7 ± 0.23 mg
- amount of corneous material extracted, total sum of the right and left flanks, Portal No, 3 [8, 10]: 2.0 ± 0.26 mg
- amount of corneous material extracted, total sum of the right and left flanks, Portal No, 4 [8, 10]: 1.4 ± 0.169 mg
- amount of corneous material extracted, total sum of the right and left flanks, Portal No, 5 [8, 10]: 1.4 ± 0.23 mg
- amount of corneous material extracted, total sum of the right and left flanks, Portal No, 6 [8, 10]: 12.6 ± 0.76 mg
- effect on the animals' skin (corneous material extracted) ([8]; compound A at 0.1%, topical): no effect
- amount of corneous material extracted in relation to the control group and compound A at 0.1% ([8]; compound A at 1%, Student Newman Keuls, p<0.01): statistically significant differences
